Assays:
[1] = Water-barrier function (WBF) test, water-evaporation rate; type: physicochemical; settings: for Water-evaporation rate (mg/hr/cm2): ceramide/CL/CS (40/30/30) dispersed with 10% arginine oleate, 37° C., humidity 40%
Protocol: (§1) A sample solution was prepared, based upon the lamellar liquid crystal (LLC) method of various methods for preparing liposome [Colloids and Surfaces, 69, p.125 (1992)]. Appropriate amounts of the lipid mixture (for example, Ce II (2S,3R)/CL/CS, a weight ratio of 40/30/30, corresponding to the LLC region of the phase diagram) were weighed into a test tube, allowed to stand at 135° C. for 10 minutes, cooled down to room temperature and then appropriate amounts of propylene glycol/glycerol (a weight ration of 1/1) were added to the mixture. These samples were left at 135° C. for 10 minutes and then shaken vigorously. This procedure was repeated three times. Then, oleic acid and an aqueous solution of L-arginine were added in turn and shaken (80 to 90° C.). The LLC gel thus obtained was diluted with a buffer of pH 6.86 to give a vesicle solution of a uniform mixture of ceramides.
A sample solution was coated over a supporting membrane covered with a protein at the surface and left under vacuum overnight to remove water thoroughly. The membrane was fixed in the stainless dish containing 20 ml of water and allowed to stand at 37° C. and a humidity of 40%. The evaporated water was calculated per time unit and area unit to determine the water-evaporation rate of WBF.
All samples tested as shown in Table 4 were mixtures of ceramide/CL/CS (40/30/30) and dispersed with 10% arginine oleate.
All samples tested as shown in Table 5 were mixtures of ceramide/CL/CS (40/30/30) and dispersed with 10% arginine oleate.

[2] = tested on: forearm treated with chloroform/methanol (damaged skin); test: Transepidermal water-loss (TEWL) test; type: in vivo, human; settings: for TEWL (g/m^2/hr): ceramide/CL/SSL (50/20/30) dispersed with 10% arginine oleate, forearm, twice per day for 2 days, data after 10 hours
Protocol: The forearm was treated with chloroform/methanol (1/1), each sample was coated on the site and TEWL was determined (n=4, twice per day, used for 2 days).
All tested samples were the (2S,3R) type and the (2S,3S) type and were mixtures of ceramide/CL/SSL (=sodium stearyllactate) (50/20/30). They were dispersed with 10% arginine oleate.

[3] = Solubility in cosmetic solvents; type: physicochemical
Protocol: Solubilities of ceramide-II (hereinafter referred to as CeII) of (2S,3R) type and ceramides of other optical isomers were studied. Ethanol, isopreneglycol, propylenglycol, glycerol, oleic acid, ethyl oleate and isopropyl myristate were used as the cosmetic solvents. Each sample was heated up to about 90° C. with vigorous shaking and cooled down to room temperature and then observed visually. 1.

[4] = Test on conditioner effect to hair (WHC); settings: ceramide/CL/SA (40/20/40) dispersed with 10% arginine oleate, 35° C., humidity 70% overnight
Protocol: Hairs were treated with chloroform/methanol (2/1) and bundles of hairs were coated with samples, rinsed away and then dried under vacuum overnight. They were left at 35° C. and a humidity of 70% overnight. They were weighed to determine the hydrated amount to the dried hairs as WHC.
All tested samples were the (2S,3R) type and the (2S,3S) type and were mixtures of ceramide/CL/SA (=stearic acid) (40/20/40). They were dispersed with 10% arginine oleate.

[5] = Water-holding capacity (WHC) test of sample solution; type: physicochemical
Protocol: as §1
A sample solution was applied to a small petri dish and left at 37° C. and a humidity of 40%. The water evaporated as the time lapsed was measured and the ratio of the water remaining in the sample was calculated from the measured value to study WHC.
The samples tested as shown in Table 2 were all mixtures of ceramide/CL/CS (40/30/30) and dispersed with 10% arginine oleate. A control was an aqueous solution of propyleneglycol/glycerol (1/1). […]

| melting point [°C] | solubility in cosmetic solvents ([3]; compared among Ce II isomers) | level dissolved in ethanol ([3]; ethanol) [%] | SMILES | Water-evaporation rate (mg/hr/cm2) ([1]; Table 5) | TEWL (g/m^2/hr) [2] [g/m^2/hr] | Water-evaporation rate (mg/hr/cm2) ([1]; Table 4) | capacity to restrain the water evaporation ([1]; versus other types) | TEWL improvement ([2]; compared with uncoated sites / non-treated normal skin) | Water-holding capacity (%) [4] [%] | Water-holding capacity (%) (After 5 hours) ([5]; ceramide/CL/CS (40/30/30) dispersed with 10% arginine oleate, 37° C., humidity 40%, after 5 hours) | water-holding capacity compared ([5]; versus the racemates, the SP ceramide, etc.) |
| --- | --- | --- | --- | --- | --- | --- | --- | --- | --- | --- | --- |
| 101 | – | – | CCCCCCCCCCCCCCCCCC(=O)N[C@@H](CO)[C@@H](O)CCCCCCCCCCCCCCC [(2S,3S), threo (2S, 3S) type of ceramide-II] | 3.6 | 4.1 | – | – | – | – | – | – |
| 95 to 96 | lowest solubility | 0.1 | CCCCCCCCCCCCCCCCCC(=O)N[C@@H](CO)[C@H](O)CCCCCCCCCCCCCCC [(2S,3R), ceramide-II of erythro (2S,3R) type] | 2.5 | 2.8 | 2.5 | more superior to other types | can recover to the TEWL value of the non-treated normal skin more rapidly | 8.2 | 22.4 | significantly higher water-holding capacity |
| – | – | – | CCCCCCCCCCCCCCCCCC(=O)N[C@H](CO)[C@@H](O)CCCCCCCCCCCCCCC [(2R,3S), erythro (2R, 3S) type of ceramide-II, reference compound] | 2.9 | – | – | – | – | – | – | – |
